Reference: article PMC8308911, “Pharmacokinetic Study of Anti-osteoarthritic Compounds of a Standardized Fraction from Sphaeralcea Angustifolia” (Pharmaceuticals, 2021)
Where two headings read alike, the source gives them in different places.

Assay: Pharmacokinetics after single intravenous administration of the SaTSS standardized fraction (plasma, HPLC, PKSolver)
Type: in vivo, ICR mice
Conditions: for AUC(0-t): read-out: AUC0-60 (converted); for Vd: read-out: Vss
Method: Analyses of HPLC were carried out in a Waters system (2695 Separation module) coupled to a diode array detector (2996) with a 190–600-nm detection range and operated by the Manager Millennium software system (Empower 1; Waters Corporation, Mexico City, Mexico). Separations were performed in a Spherisorb-ODS RP-18 column (250 × 4.6 mm, 5 µm; Waters Corporation, Mexico) employing a constant temperature of 25 °C during the analyses. Samples (20 µL) were eluted at a 1.0 mL/min flow rate with a gradient of mobile phases of (A) high-purity H2O with trifluoroacetic acid to 0.5% v/v (TFA, Sigma-Aldrich, Mexico City, Mexico) and (B) high purity CH3CN, and compounds were detected by monitoring absorbance for tomentin and scopoletin at λ = 343 nm and for sphaeralcic acid at λ = 357 nm. The mobile phase was started with water (100%) and was maintained for 1 min, then solvent B was gradually incorporated at 5% (at 2 min), at 30% (at 4 min), and at 50% (at 16 min). During the next 4 min, solvent B was increased to 100%, and this proportion was maintained for 5 min. Finally, the following 3 min were utilized to return the mobile phase to the initial condition. […] Identification of scopoletin and tomentin as well as sphaeralcic acid was performed by comparing their retention times (tomentin—11.288 min, scopoletin—11.349 min, coumarin mixure—11.457 min, and sphaeralcic acid—23.319 min) and absorbance spectra.
The mice were previously anesthetized with sodium pentobarbital (PiSA Agropecuaria), then retro-orbital sinus blood was obtained using heparinized capillaries and distributed to heparinized tubes, and tubes were centrifuged at 3500 g for 7 min. The plasma obtained was transferred to new tubes and stored at −4 °C until use.
Plasma samples were extracted with CH3CN and TFA (w/v) 20% (1:1), then vials were centrifuged at 14,000 g for 10 min and the supernatant was transferred to another vial and left to dry at room temperature. The precipitate was resuspended with 1 mL of high-purity methanol (Merk, México) and filtered through Teflon membrane (13 mm, 0.45 µm, Life Science). Each filtered sample was injected into the HPLC equipment, and the concentrations of tomentin and scopoletin at λ = 343 nm and of sphaeralcic acid at λ = 357 nm were obtained by comparison with pre-built calibration curves.
To evaluate the suitability of the assay for the pharmacokinetic studies, 400 mg/kg of the active SaTSS fraction standardized in a mixture of tomentin and scopoletin (7.1 mg/400 mg), and sphaeralcic acid (34.6 mg/400 mg) was administered orally or intravenously to the mice. The dose of SaTSS fraction was chosen based on previous research of active compounds, as the median efective dose of each compound and detectable concentrations of them in the fraction. For oral pharmacokinetics, ten animals were used in each group at different times (0, 1.3, 3.3, 5, 10, 20, 40, 60, 80, 120, and 240 min). For intravenous pharmacokinetics, three animals were used in each group at different times (2, 4, 6, 8, 10, 15, 20, 30, and 60 min) Subsequently, the mice were anesthetized, retro-orbital sinus blood was obtained, plasma samples were extracted with CH3CN and TFA (w/v) 20% (1:1), and the extracts were analyzed by HPLC for coumarin (tomentin and scopoletin) and sphaeralcic acid quantification. Pharmacokinetic calculations were performed using the observed data. All data were subsequently processed using the PKSolver add-in program for Microsoft Excel written in Visual Basic for Applications. All values obtained were expressed in mean ± Standard Deviation (SD). For the pharmacokinetic assay, the selection was made either from a one-compartment or from a two-compartment model, with the use of both the Akaike Information Criterion (AIC) and the Schwarz Criterion (SC). […]

[1] = ICR, mouse, plasma, iv, 400 mg/kg, intravenous 400 mg/kg SaTES fraction, One-Compartment Model
[2] = ICR, mouse, plasma, iv, 400 mg/kg, intravenous 400 mg/kg SaTES fraction, Two-Compartment Model
[3] = intravenous 400 mg/kg SaTES fraction, One-Compartment Model
[4] = intravenous 400 mg/kg SaTES fraction, Two-Compartment Model
[5] = intravenous 400 mg/kg SaTES fraction, Two-Compartment Model, 400 mg/kg
[6] = intravenous 400 mg/kg SaTES fraction, Two-Compartment Model, listed as Sphaeralcic Acid, 400 mg/kg
[7] = intravenous 400 mg/kg SaTES fraction, Two-Compartment Model, listed as sphaeralcic acid, 400 mg/kg

- AUC(0-inf) [1]: 21300 ng·h/mL
- clearance [1]: 27 mL/min/kg
- AUC(0-t) [1]: 18300 ng·h/mL
- C0 (ICR, mouse, plasma, iv, 400 mg/kg, intravenous 400 mg/kg SaTES fraction, One-Compartment Model, read-out: C0): 41700 ng/mL
- MRT (ICR, mouse, plasma, iv, 400 mg/kg, intravenous 400 mg/kg SaTES fraction, One-Compartment Model, read-out: MRT (converted)): 30.7 min
- Vd [1]: 0.828 L/kg
- half-life (ICR, mouse, plasma, iv, 400 mg/kg, intravenous 400 mg/kg SaTES fraction, One-Compartment Model, read-out: t1/2): 21.2 min
- AUC(0-inf) [2]: 20400 ng·h/mL
- clearance [2]: 28 mL/min/kg
- AUC(0-t) [2]: 17700 ng·h/mL
- C0 (ICR, mouse, plasma, iv, 400 mg/kg, intravenous 400 mg/kg SaTES fraction, Two-Compartment Model, read-out: C0): 58500 ng/mL
- MRT (ICR, mouse, plasma, iv, 400 mg/kg, intravenous 400 mg/kg SaTES fraction, Two-Compartment Model, read-out: MRT (converted)): 29.3 min
- Vd [2]: 0.826 L/kg
- half-life (ICR, mouse, plasma, iv, 400 mg/kg, intravenous 400 mg/kg SaTES fraction, Two-Compartment Model, read-out: t1/2β): 20.6 min
- concentration at 2 min (ICR, mouse, plasma, intravenous single dose 400 mg/kg SaTES fraction, 2.0 min, n = 3): 40880 ± 210 ng/mL
- concentration at 4 min (ICR, mouse, plasma, intravenous single dose 400 mg/kg SaTES fraction, 4.0 min, n = 3): 36280 ± 110 ng/mL
- concentration at 6 min (ICR, mouse, plasma, intravenous single dose 400 mg/kg SaTES fraction, 6.0 min, n = 3): 33900 ± 240 ng/mL
- concentration at 8 min (ICR, mouse, plasma, intravenous single dose 400 mg/kg SaTES fraction, 8.0 min, n = 3): 31800 ± 750 ng/mL
- concentration at 10 min (ICR, mouse, plasma, intravenous single dose 400 mg/kg SaTES fraction, 10 min, n = 3): 28700 ± 650 ng/mL
- concentration at 15 min (ICR, mouse, plasma, intravenous single dose 400 mg/kg SaTES fraction, 15 min, n = 3): 24400 ± 330 ng/mL
- concentration at 20 min (ICR, mouse, plasma, intravenous single dose 400 mg/kg SaTES fraction, 20 min, n = 3): 21200 ± 510 ng/mL
- concentration at 30 min (ICR, mouse, plasma, intravenous single dose 400 mg/kg SaTES fraction, 30 min, n = 3): 15800 ± 570 ng/mL
- concentration at 60 min (ICR, mouse, plasma, intravenous single dose 400 mg/kg SaTES fraction, 60 min, n = 3): 3810 ± 90 ng/mL
- AUMC [3]: 39,202.118 µg/mL*min^2
- V [3]: 0.828 (mg)/(µg/mL)
- k10 [3]: 0.032 min⁻¹
- AUC0-inf ∞ (intravenous 400 mg/kg SaTES fraction, One-Compartment Model, 400 mg/kg): 1278.978 µg·min/mL
- k10 [4]: 0.048 min⁻¹
- k12 [4]: 0.249 min⁻¹
- k21 [4]: 0.624 min⁻¹
- t1/2α [4]: 0.781 min
- α [4]: 0.88 min⁻¹
- β [4]: 0.034 min⁻¹
- A (plasma concentration, central compartment) [5]: 18.03 µg/mL
- B (plasma concentration, peripheral compartment) [5]: 40.46 µg/mL
- A (plasma concentration, central compartment) [6]: 18.027 µg/mL
- AUMC [6]: 35,880.304 µg/mL*min^2
- B (plasma concentration, peripheral compartment) [6]: 40.461 µg/mL
- C0 [6]: 58489 ng/mL
- MRT [6]: 29.294 min
- V [6]: 0.591 (mg)/(µg/mL)
- AUMC [7]: 35,880.30 µg/mL*min^2
- V [7]: 0.59 (mg)/(µg/mL)
Compound: COc1c(C)cc2c(C(C)C)cc(C(=O)O)c(O)c2c1O [Sphaeralcic acid, sphaeralcic acid]
